The test system of series [1] is HIV-1 integration in MT-2 cells (HIV-1 IIIb). Particulars: relative to DMSO; for Late reverse transcription products (fold change): HIV-1 IIIb-infected MT-2, compound >20-fold EC50, 12 h; for Alu-LTR integration junctions (fold change) / Integration failure of 2-LTR circles (fold change): HIV-1 IIIb-infected MT-2, compound >20-fold EC50, 24 h.
Protocol: Quantification of 2-long terminal repeat (LTR) circles, late reverse transcription products, and integration junctions was adapted from a previously described method ([30]). […] Three hours after viral adsorption, the infected cells were washed twice with 20 ml of RPMI 1640 medium containing 10% FBS and antibiotics and seeded in 6-well plates in 2 ml of culture medium at 1 × 10^6 cells per well. […] These plates were incubated at 37°C for either 12 h (for late reverse transcription product quantification) or 24 h (for 2-LTR circle and Alu-LTR product quantification), after which time the cells were harvested for total DNA isolation. DNA was extracted from each well using the QIAamp DNA minikit (Qiagen, Valencia, CA) and collected as a 100-μl eluate. TaqMan real-time PCR-quantified 2-LTR junctions (2-LTR circles), late reverse transcription products, and integration junctions (Alu-LTR) were normalized to the level of host globin gene in each sample. Quantification by PCR was performed on the ViiA 7 real-time PCR system (Life Technologies, Grand Island, NY).
The test system of series [2] is NRTI-, NNRTI- and PI-Resistant HIV-1 Mutants. In words: Antiviral activity against NRTI-, NNRTI- and PI-resistant HIV-1 mutants. In kind it is cell-based. Particulars: for EC50: Human immunodeficiency virus 1, WT, Table S7.
Series [3] relates to INSTI-resistant HIV-1 mutants (HXB2). Briefly: microbe, parasite or virus in culture. In kind it is cell-based.
The test system of another series is HIV-1 BaL. To be noted: primary CD4+ T-cells, 35 days, drug at tissue culture equivalent clinical Cmin (FTC 160 × EC50).
Series [4] deals with inhibitor-selected HIV-1 IIIb passages. Briefly: Phenotypic profile of selected HIV-1 passages. In kind it is cell-based. To be noted: for EC50: Human immunodeficiency virus 1, IIIB.
Series [5] deals with HIV-1 IIIb. In words: Antiviral assay in MT-2 cells. It counts as cell-based. To be noted: Human immunodeficiency virus 1, IIIB, MT2; Table S9 footnote b; read-out: EC50 previously determined (start of resistance selection at twice the EC50). On the procedure:
For the antiviral assay utilizing MT-2 and MT-4 cells, 50 μl of a 2× test concentration of 5-fold serially diluted compound in culture medium with 10% FBS was added to each well of a 96-well plate (9 concentrations) in triplicate. MT-2 and MT-4 cells were infected with HIV-1 IIIb at a multiplicity of infection (MOI) of 0.01 for 3 h. Fifty microliters of infected cell suspension in culture medium with 10% FBS (∼1.5 × 10^4 cells) then was added to each well containing 50 μl of diluted compound. The plates were then incubated at 37°C for 5 days. After 5 days of incubation, 100 μl of CellTiter-Glo reagent (Promega Biosciences, Inc., Madison, WI) was added to each well containing MT-2 or MT-4 cells. Cell lysis was carried out by incubation at room temperature for 10 min and chemiluminescence was read. For compound cytotoxicity assessment, the protocol was identical except that uninfected cells were used and compounds were serially diluted 3-fold.

The subject of series [6] is HIV-1 IIIb. Briefly: HIV breakthrough selection in MT-2 cells. Particulars: MT-2, HIV-1 IIIb; FTC 4× EC95, EVG 5× EC95, BIC and DTG 2.5× and 5× EC95; up to day 32.
A further series concerns HBV Production. In words: microbe, parasite or virus in culture. Particulars: Hepatitis B virus.
A short description of series [7]: Cytotoxicity in AD38 cells. Particulars: human.
A short description of another series: in vitro. To be noted: human, CC50 in Primary Human Hepatocytes.
Setting [8] is: 480 h, selected virus EVG P2 (day 20, 7.2 nM).
The mark [9] stands for this setting: selected virus BIC P3 (day 47, 6 nM).
[10] abbreviates: selected virus BIC P5 (day 71, 12 nM).
[11] abbreviates: selected virus BIC P6 (day 86, 24 nM).
Setting [12] is: selected virus BIC P8 (day 156, 96 nM).
Setting [13] is: selected virus BIC P9 (day 181, 192 nM).
Setting [14] is: selected virus BIC P10 (day 234, 384 nM).
[15] abbreviates: selected virus DTG P3Lo (day 59, 6.4 nM).
The mark [16] stands for this setting: selected virus DTG P4 (day 87, 9.6 nM).
Where [17] appears, read: selected virus DTG P5 (day 97, 14.4 nM).
[18] abbreviates: selected virus DTG P7 (day 139, 32.4 nM).
[19] abbreviates: selected virus DTG P9 (day 174, 72.9 nM).
Setting [20] is: selected virus DTG P10 (day 202, 109.4 nM).
Setting [21] is: selected virus EVG P4 (day 41, 28.8 nM).
Setting [22] is: selected virus EVG P6 (day 56, 115 nM).
Where [23] appears, read: selected virus EVG P7 (day 67, 230 nM).
The mark [24] stands for this setting: selected virus EVG P9 (day 94, 922 nM).
Where [25] appears, read: selected virus EVG P10 (day 119, 1843 nM).

Where two headings read alike, the source gives them in different places. A value given as a limit tells only on which side of the number the result lay.

With `O=C1Nc2ccc(Cl)cc2[C@@](C#CC2CC2)(C(F)(F)F)O1` [EFV, efavirenz], the “Late reverse transcription products (fold change)” value in [1] amounted to 0.21 ± 0.07 fold change. In series [1], the “Alu-LTR integration junctions (fold change)” value was determined as 0.10 ± 0.05 fold change. Moreover, the “Integration failure of 2-LTR circles (fold change)” value in [1] was found to be 0.05 ± 0.04 fold change. The EC50 turned out to be 1.2 ± 0.4 nM in series [2]; 1.5 ± 0.3 nM in series [3] (Human immunodeficiency virus 1, HXB2, IN mutant E92Q); 1.5 ± 0.4 nM in [3] (Human immunodeficiency virus 1, HXB2, IN mutant E92Q/N155H); 1.9 ± 0.4 nM in series [3] (Human immunodeficiency virus 1, HXB2, IN mutant E138K/Q148K); 1.5 ± 0.3 nM in [3] (Human immunodeficiency virus 1, HXB2, IN mutant G140S/Q148R); 1.1 ± 0.4 nM in series [3] (Human immunodeficiency virus 1, HXB2, IN mutant M50I (BIC/DTG selection)). Moreover, the EC50 in series [3] (Human immunodeficiency virus 1, HXB2, IN mutant M50I/R263K (BIC selection)) was found to be 1 ± 0.3 nM; in series [3] (Human immunodeficiency virus 1, HXB2, IN mutant M50I/S119R/R263K (DTG selection)), 3.2 ± 1.8 nM; in series [3] (Human immunodeficiency virus 1, HXB2, IN mutant N155H) it was 1.6 ± 0.05 nM; in series [3] (Human immunodeficiency virus 1, HXB2, IN mutant N155H/Q148R), 2.2 ± 0.8 nM; in [3] (Human immunodeficiency virus 1, HXB2, IN mutant Q148R), 1.7 ± 0.1 nM; in [3] (Human immunodeficiency virus 1, HXB2, IN mutant R263K (BIC/DTG selection), Table 7), 1 ± 0.4 nM. Moreover, the EC50 in series [3] (Human immunodeficiency virus 1, HXB2, IN mutant R263K, Table 6) is 1.8 ± 0.3 nM; in series [3] (Human immunodeficiency virus 1, HXB2, IN mutant S119R (DTG selection)) it was 2.1 ± 1.1 nM; in [3] (Human immunodeficiency virus 1, HXB2, IN mutant S119R/R263K (DTG selection)) it was 2.1 ± 1 nM; in series [3] (Human immunodeficiency virus 1, HXB2, IN mutant S153Y (DTG selection)), 2.2 ± 1.1 nM; in [3] (Human immunodeficiency virus 1, HXB2, IN mutant S153Y/R263K (DTG selection)) it was 2 ± 0.7 nM; in series [3] (Human immunodeficiency virus 1, HXB2, IN mutant Y143R), 1.7 ± 0.1 nM. For the same molecule, the EC50 in [3] (Human immunodeficiency virus 1, HXB2, WT (HXB2), Table 6, read-out: EC50) worked out at 1.9 ± 0.3 nM; in [3] (Human immunodeficiency virus 1, HXB2, WT (HXB2), Table 7, read-out: EC50), 1.2 ± 0.4 nM; in series [4] (setting [8]) it was 3 nM; in series [4] (HIV-1-IIIb (unselected)), 1.6 nM; in series [4] (setting [9]), 1.6 nM; in series [4] (setting [10]) it was 1.2 nM. The EC50 in series [4] (setting [11]) stood at 1.3 nM; in [4] (setting [12]) it was 1.7 nM; in [4] (setting [13]), 2.8 nM; in series [4] (setting [14]), 2.7 nM; in series [4] (setting [15]), 1.2 nM; in series [4] (setting [16]), 1.8 nM. Further, the EC50 in [4] (setting [17]) came to 1.7 nM; in [4] (setting [18]) it was 2.3 nM; in series [4] (setting [19]) it was 2.1 nM; in series [4] (setting [20]) it was 2.8 nM; in [4] (setting [21]) it was 2.8 nM; in [4] (setting [22]) it was 2.4 nM. In addition, the EC50 came out at 3.6 nM in [4] (setting [23]), 3.2 nM in [4] (setting [24]) and 2 nM in series [4] (setting [25]). Also, in series [2] (NNRTI resistant L100I K103N), the “EC50 Fold Change Relative to WT” value is reported as more than 83 fold change. Moreover, the “Frequency of Viral Breakthrough with RAMs” value (shortened to “Frequency”) in the series with HIV-1 BaL was 17%. The “p24+ Wells” value with HIV-1 BaL is on record as 2/12. The “Fold-Resistance Relative to HIV-1 IIIb” value in series [4] (HIV-1-IIIb (reference)) is 1 fold; in series [4] (selected virus BIC P3), 1 fold; in series [4] (selected virus BIC P5) it was 0.8 fold; in series [4] (selected virus BIC P6), 0.8 fold; in [4] (selected virus BIC P8), 1.1 fold; in [4] (selected virus BIC P9), 1.8 fold. In addition, the “Fold-Resistance Relative to HIV-1 IIIb” value in series [4] (selected virus BIC P10) worked out at 1.7 fold; in [4] (selected virus DTG P3Lo), 0.8 fold; in series [4] (selected virus DTG P4) it was 1.1 fold; in [4] (selected virus DTG P5), 1.0 fold; in [4] (selected virus DTG P7), 1.4 fold; in series [4] (selected virus DTG P9), 1.3 fold. The “Fold-Resistance Relative to HIV-1 IIIb” value was 1.8 fold in series [4] (selected virus DTG P10); 1.8 fold in series [4] (selected virus EVG P2); 1.7 fold in [4] (selected virus EVG P4); 1.5 fold in series [4] (selected virus EVG P6); 2.2 fold in [4] (selected virus EVG P7); 2.0 fold in [4] (selected virus EVG P9). Moreover, the “Fold-Resistance Relative to HIV-1 IIIb” value in series [4] (selected virus EVG P10) turned out to be 1.2 fold.

Regarding `COc1cc2c(cc1Cc1cccc(Cl)c1F)c(=O)c(C(=O)O)cn2[C@H](CO)C(C)C` [EVG, elvitegravir], the EC50 in series [2] was found to be 2.5 ± 1.5 nM; with HIV-1 IIIb [5] it was 1.8 nM; in series [4] (setting [8]), 17.8 nM; in series [4] (HIV-1-IIIb (unselected)) it was 2.1 nM; in series [4] (setting [9]), 5.1 nM; in series [4] (setting [10]), 8.3 nM. For the same molecule, the EC50 worked out at 7.8 nM in series [4] (setting [11]); 33.6 nM in series [4] (setting [12]); 55 nM in series [4] (setting [13]); 33 nM in series [4] (setting [14]); 1.7 nM in series [4] (setting [15]); 5 nM in [4] (setting [16]). Besides, the EC50 was determined as 9.3 nM in series [4] (setting [17]); 15.5 nM in series [4] (setting [18]); 25.1 nM in series [4] (setting [19]); 69.2 nM in [4] (setting [20]); 30.2 nM in [4] (setting [21]); 48.9 nM in series [4] (setting [22]). Moreover, the EC50 was found to be 203 nM in series [4] (setting [23]), 296 nM in series [4] (setting [24]) and 246 nM in [4] (setting [25]). The “Frequency” value in the series on HIV-1 BaL came out at 54%. For the same molecule, the “p24+ Wells” value with HIV-1 BaL was 23/24. The “day postinfection of HIV-1 breakthrough” value in the series with HIV-1 IIIb [6] was determined as 22 days.

In the case of `C[C@H](Cn1cnc2c(N)ncnc21)OCP(=O)(O)O` [TFV, tenofovir], the EC50 in series [2] worked out at 3720 nM; with HBV Production, 360 nM. Besides, in series [2] (NRTI resistant 6TAMs), the “EC50 Fold Change Relative to WT” value was determined as 7.1 fold change. The same molecule showed a CC50 at 5 days in series [7] of more than 50000 nM.

`COC(=O)N[C@H](C(=O)N[C@@H](Cc1ccccc1)[C@@H](O)CN(Cc1ccc(-c2ccccn2)cc1)NC(=O)[C@@H](NC(=O)OC)C(C)(C)C)C(C)(C)C` [ATV, atazanavir] yielded an EC50 in [2] of 1.6 ± 0.9 nM. Moreover, in the series on HIV-1 BaL, the “Frequency” value was determined as 0% and the “p24+ Wells” value is 0/24.

As to `CC(C)CN(C[C@@H](O)[C@H](Cc1ccccc1)NC(=O)O[C@H]1CO[C@H]2OCC[C@H]21)S(=O)(=O)c1ccc(N)cc1` [DRV, darunavir], in series [1], the “Late reverse transcription products (fold change)” value amounted to 0.96 ± 0.11 fold change, the “Alu-LTR integration junctions (fold change)” value is reported as 0.72 ± 0.31 fold change and the “Integration failure of 2-LTR circles (fold change)” value came out at 0.57 ± 0.24 fold change. In addition, the response in series [2] was half-maximal at 3.5 ± 1.6 nM (EC50).

Turning to `Cc1cc(/C=C/C#N)cc(C)c1Nc1ccnc(Nc2ccc(C#N)cc2)n1` [RPV, rilpivirine], the EC50 in series [2] worked out at 0.8 ± 0.4 nM. For the same molecule, in [2] (NNRTI resistant L100I K103N), the “EC50 Fold Change Relative to WT” value is 21.9 fold change. Also, in the series with HIV-1 BaL, the “Frequency” value is 25% and the “p24+ Wells” value was 6/24.

With `COc1ccc(C[C@H](N)C(=O)N[C@H]2[C@@H](O)[C@H](n3cnc4c(N(C)C)ncnc43)O[C@@H]2CO)cc1` [Puromycin], the results for the CC50 in “in vitro” (Donor 1) and in the series “in vitro” (Donor 2) were 1200 nM and 830 nM, respectively.

The record behind these values is PMC5118987 (Antimicrobial Agents and Chemotherapy, 2016).
